Literature values as cited in patent EP1146906B1, “MUCOSAL DELIVERY SYSTEM” (Alk-Abelló A/S, priority 1999, dated 2000).
Read-outs that look alike come from different tables or passages of the source.

Details: compared to the parenteral equivalent

- bioavailability (after nasal administration): 10%
- bioavailability (after oral administration): 1%
Substance: desmopression
